Data reported in PubChem BioAssay AID2060897 (Molecular Pharmacology Branch, DTP, NCI, 2025).

Tested on: 966289-007-R4-J1-PDC complex spheroid viability
Assay: Anticancer human tumor 966289-007-R4-J1-PDC patient-derived pancreatic adenocarcinoma cell line growth inhibition [RAS]
Conditions: for viability, T/C: stronger effect = lower value; active means viability on the fitted dose curve at most 10% of control; inactive means the rest
Excerpt: RAS pathway inhibitors in Combinations in Complex Spheroids
A high-throughput screen of multi-cell type tumor spheroids was designed to identify active combinations of RAS pathway inhibitors and targeted small molecules. Complex spheroids include a stromal component modeled by human endothelial cells (HUVEC) and fibroblasts modeled by human mesenchymal stem cells (MSCs). The concentration ranges selected for each drug and investigational agent were based upon clinically achievable concentrations if the clinical Cmax of the agent was known.
Compounds. The drugs and investigational agents: abemaciclib (NSC768073), cobimetinib (NSC768068), divarasib (GDC6063, NSC841802), docetaxel (NSC628503), GDC-1971 (RLY-1971, NSC841576), gemcitabine (NSC613327), inavolisib (NSC800729), ipatasertib (NSC767898), KB-0742 (NSC834161), MRTX-1133 (NSC836407), osimertinib (NSC779217), RMC-4630 (NSC839698), RMC-6236 (NSC851965), RMC-6291 (NSC852671), Ro-3306 (NSC812927), sapanisertib (NSC764658), SN-38 (NSC673596), staurosporine (NSC755774), SY5609 (NSC837396), and tovorafenib (DAY101, NSC766906), were obtained from the National Cancer Institute (NCI) Developmental Therapeutics Program Chemical Repository. The FDA-approved anticancer drug set is available from the NCI Developmental Therapeutics Program. […] The stock solutions were prepared in dimethyl sulfoxide (DMSO, Sigma-Aldrich, St. Louis, MO, cat. D2650) at 800-fold the tested concentration and stored at -70 degrees C prior to their use. All drugs and investigational agents were tested over a range starting from a high concentration at or near the clinical Cmax and decreasing in half-log increments. If the clinical Cmax for an agent had not been determined, the highest concentration tested was 10 microM.
Cell Culture. All cells were maintained in an incubator at 37 degrees C and 5% CO2 with 95% humidity. The PDC lines were cultured according to standard operating procedures established by the NCI PDMR. All PDCs were thawed and cultured in Matrigel-coated flasks prepared with a working solution of 1X Ham's F-12 nutrient mix, without supplementation (Invitrogen, Waltham, MA, cat. 11765054), 100 U/mL penicillin-streptomycin (Invitrogen, cat. 15140122), and 2.5% Matrigel (Corning Inc., Corning, NY, cat. 354248) for the first three passages. The 362531-283-R-J2-PDC and 782815-120-R-J1-PDC lines were cultured in 6C/Colon 1B media, which includes advanced DMEM/F-12 (Thermo Fisher Scientific, cat. 12634028), 10 mM HEPES (Thermo Fisher Scientific, cat. 15630080), 1X GlutaMAX supplement (Thermo Fisher Scientific, cat. 35050061), 0.1 mg/mL primocin (InvivoGen, San Diego, CA, cat. ant-pm-2), 10% defined fetal bovine serum, heat inactivated (HyClone Laboratories Inc., Logan, UT, cat. SH30070.03HI), 50% L-WRN conditioned media (ATCC, cat. CRL-3276), 1.25 mM N-Acetyl-L-cysteine (Sigma-Aldrich, cat. A9165), 10 mM nicotinamide (Sigma-Aldrich, cat. N0636), 1X B-27 supplement (Thermo Fisher Scientific, cat. 17504044), 1X N-2 supplement (Thermo Fisher Scientific, cat. 17502048), 50 ng/mL human EGF (Thermo Fisher Scientific, cat. PHG0311), and 10 microM Y-27632 dihydrochloride (Tocris Bioscience, cat. 1254). The K12877-001-R-J1-PDC line was cultured in 6I media, which includes all 6C/Colon 1B media plus 10 ng/mL human FGF-10 (PeproTech, cat. 100-26), 1 ng/mL human FGF-2 (PeproTech, cat. 100-18B), 1 µM prostaglandin E2 (Tocris Bioscience, cat. 2296), […] hydrocortisone (Sigma-Aldrich, cat. H4001), and […] bovine insulin (Sigma-Aldrich, cat. I6634). The K86415-001-R-J1-PDC line was cultured in 6D media, which includes all 6C/Colon 1B media components minus the L-WRN conditioned media. The 485176-168-R4-J1-PDC was cultured in PANC media, which includes all 6C/Colon 1B media plus 100 ng/mL human FGF-10 (PeproTech, cat. 100-26), 500 nM SB-431542 (Selleckchem, cat. S1067), and 10 nM gastrin (Tocris Bioscience, cat. 3006). […]
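Further: spheroids exposed to agents for one week before readout.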
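Wherever viability, T/C is given: percent viability relative to DMSO vehicle control wells as 100%.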

O=C(c1ccc(F)c(F)c1Nc1ccc(I)cc1F)N1CC(O)([C@@H]2CCCCN2)C1 + C=CC(=O)N1CCN(c2nc(OCC3CCCN3C)nc3c(F)c(-c4nc(N)cc(C)c4C(F)(F)F)c(Cl)cc23)C(C)C1
648 nM: IC50 (curve of first compound, second compound 0.0316 µM)
618 nM: IC50 (curve of first compound, second compound 0.01 µM)
570 nM: IC50 (curve of first compound, second compound 0.1 µM)
740 nM: IC50 (curve of first compound, second compound 0.316 µM)
509 nM: IC50 (curve of first compound, second compound 0.00316 µM)
694 nM: IC50 (curve of first compound, second compound 1 µM)
inactive: viability, T/C (second compound 0.00316 µM, first compound 0.00316 µM) 98.1% | viability, T/C (second compound 0.00316 µM, first compound 0.01 µM) 87.5% | viability, T/C (second compound 0.00316 µM, first compound 0.0316 µM) 77.2% | viability, T/C (second compound 0.00316 µM, first compound 0.1 µM) 72.3% | viability, T/C (second compound 0.00316 µM, first compound 0.316 µM) 63.5% | viability, T/C (second compound 0.00316 µM, first compound 1 µM) 36.4% | viability, T/C (second compound 0.01 µM, first compound 0.00316 µM) 78.5% | viability, T/C (second compound 0.01 µM, first compound 0.01 µM) 80.9% | viability, T/C (second compound 0.01 µM, first compound 0.0316 µM) 71.2% | viability, T/C (second compound 0.01 µM, first compound 0.1 µM) 75.8% | viability, T/C (second compound 0.01 µM, first compound 0.316 µM) 62.9% | viability, T/C (second compound 0.01 µM, first compound 1 µM) 40.3% | viability, T/C (second compound 0.0316 µM, first compound 0.00316 µM) 94.6% | viability, T/C (second compound 0.0316 µM, first compound 0.01 µM) 75.3% | viability, T/C (second compound 0.0316 µM, first compound 0.0316 µM) 76.3% | viability, T/C (second compound 0.0316 µM, first compound 0.1 µM) 70.3% | viability, T/C (second compound 0.0316 µM, first compound 0.316 µM) 66.5% | viability, T/C (second compound 0.0316 µM, first compound 1 µM) 40.8% | viability, T/C (second compound 0.1 µM, first compound 0.00316 µM) 95.9% | viability, T/C (second compound 0.1 µM, first compound 0.01 µM) 70.3% | viability, T/C (second compound 0.1 µM, first compound 0.0316 µM) 85.1% | viability, T/C (second compound 0.1 µM, first compound 0.1 µM) 72.2% | viability, T/C (second compound 0.1 µM, first compound 0.316 µM) 63.5% | viability, T/C (second compound 0.1 µM, first compound 1 µM) 38.2% | viability, T/C (second compound 0.316 µM, first compound 0.00316 µM) 84% | viability, T/C (second compound 0.316 µM, first compound 0.01 µM) 82.6% | viability, T/C (second compound 0.316 µM, first compound 0.0316 µM) 78.6% | viability, T/C (second compound 0.316 µM, first compound 0.1 µM) 76.2% | viability, T/C (second compound 0.316 µM, first compound 0.316 µM) 68% | viability, T/C (second compound 0.316 µM, first compound 1 µM) 43.6% | viability, T/C (second compound 1 µM, first compound 0.00316 µM) 70.2% | viability, T/C (second compound 1 µM, first compound 0.01 µM) 71.1% | viability, T/C (second compound 1 µM, first compound 0.0316 µM) 71.3% | viability, T/C (second compound 1 µM, first compound 0.1 µM) 77.2% | viability, T/C (second compound 1 µM, first compound 0.316 µM) 63.5% | viability, T/C (second compound 1 µM, first compound 1 µM) 42.7%

CC(=O)OC12COC1CC(O)C1(C)C(=O)C(O)C3=C(C)C(OC(=O)C(O)C(NC(=O)OC(C)(C)C)c4ccccc4)CC(O)(C(OC(=O)c4ccccc4)C21)C3(C)C (centres undefined)
7.82% [middle of 4 runs]: viability, T/C (compound 0.0316 µM)
14.1% [middle of 4 runs]: viability, T/C (compound 0.1 µM)
inactive: viability, T/C (compound 0.316 µM) 15.4% [middle of 4 runs] | viability, T/C (compound 1 µM) 19.7% [middle of 4 runs] | viability, T/C (compound 3.16 µM) 38.3% [middle of 4 runs] | viability, T/C (compound 10 µM) 67% [middle of 4 runs]
< 31.6 nM: IC50 (curve of compound)
